Experimental data taken from ChEMBL document CHEMBL4673347, “Discovery of new thieno[2,3-d]pyrimidine and thiazolo[5,4-d]pyrimidine derivatives as orally active phosphoinositide 3-kinase inhibitors” (Bioorg Med Chem, 2021).

Key:
HGC-27 [1] = experiment: Antiproliferative activity against human HGC-27 cells assessed as reduction in cell viability incubated for 72 hrs measured after 4 hrs of MTT addition by MTT assay; format: functional, cell-based
[2] = molecular target: Phosphatidylinositol 4,5-bisphosphate 3-kinase catalytic subunit alpha isoform (Homo sapiens, UniProt P42336); experiment: Inhibition of recombinant human full length His-tagged PI3Kalpha expressed in baculovirus expression system using PIP2 as substrate by ADP-Glo reagent based assay
HGC-27 [3] = experiment: Induction of apoptosis in human HGC-27 cells assessed as necrotic cells at 500 nM incubated for 24 hrs by annexin V-FITC and propidium iodide based staining based flow cytometry analysis (reference value: 1.95 %); format: functional
HGC-27 [4] = experiment: Induction of apoptosis in human HGC-27 cells assessed as early apoptotic cells at 500 nM incubated for 24 hrs by annexin V-FITC and propidium iodide based staining based flow cytometry analysis (reference value: 6.22 %); format: functional
HGC-27 [5] = experiment: Induction of apoptosis in human HGC-27 cells assessed as late apoptotic cells at 500 nM incubated for 24 hrs by annexin V-FITC and propidium iodide based staining based flow cytometry analysis (reference value: 8.15 %); format: functional
HGC-27 [6] = experiment: Induction of apoptosis in human HGC-27 cells assessed as viable cells at 500 nM incubated for 24 hrs by annexin V-FITC and propidium iodide based staining based flow cytometry analysis (reference value: 83.7 %); format: functional; conditions: read-out: Activity

Phosphatidylinositol 4,5-bisphosphate 3-kinase catalytic subunit alpha isoform, sequence (P42336 whole entry, canonical isoform): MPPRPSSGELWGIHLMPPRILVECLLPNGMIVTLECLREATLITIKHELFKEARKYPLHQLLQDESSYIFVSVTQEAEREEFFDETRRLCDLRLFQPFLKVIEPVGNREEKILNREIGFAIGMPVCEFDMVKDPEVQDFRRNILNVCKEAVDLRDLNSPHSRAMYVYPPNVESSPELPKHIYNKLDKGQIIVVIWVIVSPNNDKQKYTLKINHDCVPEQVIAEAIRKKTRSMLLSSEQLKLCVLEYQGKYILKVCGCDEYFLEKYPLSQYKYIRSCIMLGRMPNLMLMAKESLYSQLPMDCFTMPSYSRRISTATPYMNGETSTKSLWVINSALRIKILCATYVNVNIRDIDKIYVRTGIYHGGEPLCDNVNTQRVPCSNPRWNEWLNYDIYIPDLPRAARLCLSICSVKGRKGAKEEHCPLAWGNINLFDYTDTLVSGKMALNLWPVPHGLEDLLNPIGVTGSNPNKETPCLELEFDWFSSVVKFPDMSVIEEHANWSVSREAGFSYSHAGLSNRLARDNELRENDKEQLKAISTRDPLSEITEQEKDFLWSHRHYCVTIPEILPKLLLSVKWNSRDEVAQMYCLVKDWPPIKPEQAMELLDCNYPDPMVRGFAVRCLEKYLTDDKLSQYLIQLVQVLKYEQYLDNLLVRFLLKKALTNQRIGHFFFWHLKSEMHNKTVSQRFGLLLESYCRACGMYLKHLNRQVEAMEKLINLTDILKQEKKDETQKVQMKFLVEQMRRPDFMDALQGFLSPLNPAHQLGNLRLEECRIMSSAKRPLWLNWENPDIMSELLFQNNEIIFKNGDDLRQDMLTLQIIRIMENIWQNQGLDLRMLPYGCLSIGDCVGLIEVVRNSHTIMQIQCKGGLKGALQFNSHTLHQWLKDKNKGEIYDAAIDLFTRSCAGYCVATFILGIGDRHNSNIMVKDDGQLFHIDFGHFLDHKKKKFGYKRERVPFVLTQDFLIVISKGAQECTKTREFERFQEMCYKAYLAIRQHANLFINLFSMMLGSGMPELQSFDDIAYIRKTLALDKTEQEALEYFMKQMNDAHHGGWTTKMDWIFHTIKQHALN

| SMILES | IC50 [2] [nM] | IC50 (HGC-27 [1]) [nM] | further results |
| --- | --- | --- | --- |
| COc1ncc(-c2cc3c(N4CCOC[C@@H]4C)ncnc3s2)cc1NS(=O)(=O)c1ccc(F)cc1F | 11 | 670 | – |
| COc1ncc(-c2cc3c(-c4ccncc4)ncnc3s2)cc1NS(=O)(=O)c1ccc(F)cc1F | 5.1 | 1700 | – |
| COc1ncc(-c2nc3c(N4CC(C)OC(C)C4)ncnc3s2)cc1NS(=O)(=O)c1ccc(F)cc1F (stereo unspecified) | 11 | 270 | – |
| COc1ncc(-c2cc3c(N4CCC(OC)CC4)ncnc3s2)cc1NS(=O)(=O)c1ccc(F)cc1F | 4.8 | 280 | – |
| COc1ncc(-c2cc3c(N4CCCC4)ncnc3s2)cc1NS(=O)(=O)c1ccc(F)cc1F | 14 | 2300 | – |
| COc1ncc(-c2cc3c(N4CC5COCC5C4)ncnc3s2)cc1NS(=O)(=O)c1ccc(F)cc1F (stereo unspecified) | 14 | 300 | – |
| COc1ncc(-c2cc3c(N4CC(C)OC(C)C4)ncnc3s2)cc1NS(=O)(=O)c1ccc(F)cc1F (racemic) | 16 | 860 | – |
| COc1ncc(-c2cc3c(N4CCSCC4)ncnc3s2)cc1NS(=O)(=O)c1ccc(F)cc1F | 17 | 810 | – |
| COc1ncc(-c2nc3c(N4CCCCC4)ncnc3s2)cc1NS(=O)(=O)c1ccc(F)cc1F | 8.8 | 960 | – |
| COc1ncc(-c2cc3c(N4C[C@@H](C)O[C@@H](C)C4)ncnc3s2)cc1NS(=O)(=O)c1ccc(F)cc1F | 15 | 560 | – |
| COc1ncc(-c2cc3c(N4CCN(C)C(=O)C4)ncnc3s2)cc1NS(=O)(=O)c1ccc(F)cc1F | 16 | 920 | – |
| COc1ncc(-c2nc3c(N4CC5CCCC5C4)ncnc3s2)cc1NS(=O)(=O)c1ccc(F)cc1F (stereo unspecified) | 6.3 | 310 | – |
| Nc1cc(C(F)(F)F)c(-c2cc(N3CCOCC3)nc(N3CCOCC3)n2)cn1 [BUPARLISIB] | – | – | Activity (HGC-27 [3]): 0.3%; Activity (HGC-27 [4]): 15.9%; Activity (HGC-27 [5]): 8.93%; viability at 0.5 µM (HGC-27 [6]): 74.9% |

The next lines start with results.

| IC50 [2] [nM] | SMILES | IC50 (HGC-27 [1]) [nM] | further results |
| --- | --- | --- | --- |
| 14 | COc1ncc(-c2cc3c(N4CCOC[C@H]4C)ncnc3s2)cc1NS(=O)(=O)c1ccc(F)cc1F | 470 | – |
| 3.5 | COc1ncc(-c2nc3c(N4CCCC4)ncnc3s2)cc1NS(=O)(=O)c1ccc(F)cc1F | 1200 | – |
| 47 | COc1ncc(-c2cc3c(N4CC5CCCC5C4)ncnc3s2)cc1NS(=O)(=O)c1ccc(F)cc1F (stereo unspecified) | 1900 | – |
| 109 | COc1ncc(-c2cc3c(N4CCN(C)CC4)ncnc3s2)cc1NS(=O)(=O)c1ccc(F)cc1F | 560 | – |
| 14 | COc1ncc(-c2cc3c(N4CCCCC4)ncnc3s2)cc1NS(=O)(=O)c1ccc(F)cc1F | 1200 | – |
| 2 | COc1ncc(-c2nc3c(N4CCOC[C@@H]4C)ncnc3s2)cc1NS(=O)(=O)c1ccc(F)cc1F | 170 | – |
| 1.9 | COc1ncc(-c2nc3c(N4CCOC[C@H]4C)ncnc3s2)cc1NS(=O)(=O)c1ccc(F)cc1F | 47 | – |
| 1.3 | COc1ncc(-c2nc3c(N4CCC(OC)CC4)ncnc3s2)cc1NS(=O)(=O)c1ccc(F)cc1F | 74 | – |
| 7.2 | COc1ncc(-c2cc3c(N4CC(OC)C4)ncnc3s2)cc1NS(=O)(=O)c1ccc(F)cc1F | 830 | – |
